Experimental data taken from PMC11397260, “Towards New Delivery Agents for Boron Neutron Capture Therapy: Synthesis and In Vitro Evaluation of a Set of Fluorinated Carbohydrate Derivatives” (Molecules, 2024).
Each block holds one compound with its values, some of them ahead of it.

Legend:
GLUT1 = biological target: T1, GLUT1 (Homo sapiens, UniProt P11166); test: cis-inhibition assay of [14C]-D-glucose uptake (GLUT1 affinity) in CAL 27 cells; format: cell-based; settings: incubation time 5 min
T1 construct: host or cells: CAL 27
T1 sequence (P11166 1-492): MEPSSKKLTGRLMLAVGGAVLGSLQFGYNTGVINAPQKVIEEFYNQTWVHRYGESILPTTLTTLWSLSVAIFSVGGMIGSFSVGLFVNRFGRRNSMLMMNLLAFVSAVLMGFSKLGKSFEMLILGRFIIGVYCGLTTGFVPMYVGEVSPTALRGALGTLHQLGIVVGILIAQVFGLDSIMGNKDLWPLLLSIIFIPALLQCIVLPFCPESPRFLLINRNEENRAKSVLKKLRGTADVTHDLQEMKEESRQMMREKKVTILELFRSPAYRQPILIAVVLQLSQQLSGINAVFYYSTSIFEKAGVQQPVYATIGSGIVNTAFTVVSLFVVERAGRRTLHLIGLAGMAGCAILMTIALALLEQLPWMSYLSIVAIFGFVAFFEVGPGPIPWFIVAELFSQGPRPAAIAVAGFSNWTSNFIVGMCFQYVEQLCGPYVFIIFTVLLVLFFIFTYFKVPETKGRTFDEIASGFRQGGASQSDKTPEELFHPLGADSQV
Description: GLUT affinity: In a strategy targeting the GLUTs, it is important to study whether the monosaccharide delivery agents will be able to compete for the transporters with the high D-glucose levels found in blood. For these purposes, we utilized our previously developed cis-inhibition assay in the CAL 27 cell line. In addition to having accurate protocols for assessment of GLUT-affinity, we have previously studied the GLUT1 expression and verified its function in the CAL 27 cell line. Thus, a strong foundation was available for the current study and we employed an identical protocol herein in the assessment of GLUT affinity, i.e., in assessing to which extent the delivery agents will be able to compete for the GLUTs against the natural substrate D-glucose.
(§1) The CAL 27 (ATCC CRL-2095) cells used in all assays were acquired from ATCC (Manassas, VA, USA) and cultured in Dulbecco’s Modified Eagle Medium (DMEM) supplemented with L-glutamine (2.0 mM), heat-inactivated fetal bovine serum (10%), and penicillin (50 U/mL)-streptomycin (50 μg/mL) at 37 °C with 5% CO2 and 95% relative humidity.
The GLUT1 affinity assay was conducted following our previously established protocol. Stock solutions of the glycoconjugates were prepared in DMSO. From the stock solutions, the samples employed in the study were prepared by diluting the stock solutions in glucose-free HBSS-buffer to reach concentrations of 0.1–1800 μM. The cells were incubated at RT for 5 min with glycoconjugates 1–4, BSH or BPA over the concentration range given above. The glucose-free HBSS buffer as such was used as a blank control. In more detail, the solutions included 1.8 μM ([…]) of [^14C]-D-glucose in 250 μL of glucose-free HBSS (Hanks’ balanced salt solution). Ice-cold buffer was used for quenching. Cell lysis was performed using 0.1 M NaOH (250 μL) and then mixed with an emulsifier safe cocktail (1.0 mL) (PerkinElmer, Waltham, MA, USA). The radioactivity was measured with a liquid scintillation counter (MicroBeta2 counter, PerkinElmer, Waltham, MA, USA), and the IC50 values were calculated through nonlinear regression analysis.

[1] = Plasma protein binding, equilibrium dialysis, human plasma; format: in vitro ADME; settings: 1 μM, results similar in human and mouse
Experimental: (§2) Through the plasma protein binding assay, we sought to provide a baseline for future assessment of the ADME-properties of FDM derivative 4. In more detail, this assay would let us evaluate to which extent the FDM derivative 4 would remain in an unbound state in the presence of plasma proteins. These studies were performed through the standard equilibrium dialysis protocol at the time points of 0 and 6 h employing a concentration of 1 μM. While the studies were performed in both human and mouse plasma, the results were similar in both cases. Being a relatively lipophilic species, it was unsurprising that the FDM derivative 4 bound in significant amounts to the plasma proteins (~97% bound vs. 3% unbound).
The working solutions of test compounds were prepared in DMSO at the concentrations of 10 mM and the working solution of control compound ketoconazole was prepared in DMSO at the concentration of 200 μM. 3 μL of the working solutions were removed to mix with 597 μL of plasma to achieve a final concentration of 1 μM or 50 μM (0.5% DMSO). The plasma samples were vortexed thoroughly. […]

[2] = Plasma protein binding, equilibrium dialysis, mouse plasma; format: in vitro ADME; settings: 1 μM, results similar in human and mouse
Experimental: as §2
The working solutions of test compounds were prepared in DMSO at the concentrations of 10 mM and the working solution of control compound ketoconazole was prepared in DMSO at the concentration of 200 μM. 3 μL of the working solutions were removed to mix with 597 μL of plasma to achieve a final concentration of 1 μM or 50 μM (0.5% DMSO). The plasma samples were vortexed thoroughly. A total of 50 µL of the spiked plasma sample was transferred to 50 μL of blank buffer, and then either incubated for 6 h (37 °C with 5% CO2) or immediately quenched by the addition of 300 μL of RT quench solution (acetonitrile containing internal standards (IS, 200 nM labetalol, 100 nM tolbutamide and 100 nM ketoprofen) to precipitate protein and the mixture was vortex for 5 min.
The dialysis membranes were soaked in ultrapure water for 60 min to separate strips, then in 20% ethanol for 20 min, and finally in dialysis buffer for 20 min. The dialysis apparatus was assembled according to the manufacturer’s instructions. Each cell was filled with 120 μL of spiked plasma sample and dialyzed against equal volume of dialysis buffer (PBS). The assay was performed in duplicate. The dialysis plate was sealed and incubated in an incubator at 37 °C with 5% CO2 at 100 rpm for 6 h. […]

[3] = Plasma stability, mouse plasma; format: in vitro ADME; settings: 50 μM
Experimental: These studies provide important insights into the stability and behavior of the delivery agent in a biological setting, which is a key factor at later stages of the development pipeline. The serum stability studies were performed in both human and mouse plasma at a set concentration of 50 μM over a time period of 24 h. Propantheline (5 μM) was utilized as a control substrate for validating the assay. […] In human plasma, the stability profile was distinct. […] While the boron delivery agent 4 does decompose in human plasma over time, the rate at which this occurs is acceptable when taking into account that the recommended guidelines for FDG imaging, thus tumor delivery, is between 55–75 min post administration. […]
10 mM working solutions of the test compound was prepared in DMSO and a 1 mM working solution of the control compound propantheline was prepared in acetonitrile. […] Peak area ratios were determined from extracted ion chromatograms. Percent compounds remaining at each time point were calculated by the following equation:Remaining Percentage t h (%) = Peak Area Ratio t h/Peak Area Ratio 0 h × 100 where Peak Area Ratio t h is the peak area ratio of control and test compound at t h; Peak Area Ratio 0 h is the peak area ratio of control and test compound at zero time point.

CAL 27 cells = test: Boron delivery capacity (boron uptake) by ICP-MS; format: cell-based, human; settings: 10–400 μM, 5 min and 120 min, compared with BPA and BSH and within the series
Experimental: Boron delivery capacity: A central property of boron delivery agents is their boron delivery capacity. […] Herein, we studied the boron delivery capacity at two time points (5 min, and 120 min) over the concentration range of 10–400 μM (see summary in Figure 4). Our previously employed protocol was utilized in order to be able to compare the results to those obtained earlier. In short, after quenching of the incubation, washing, lysis, and digestion with nitric acid, the boron content could be determined by ICP-MS.
as §1
The boron uptake studies were performed according to our earlier reported protocol. The samples used in the boron uptake studies were prepared as described above for the affinity studies. The cells were preincubated. Glycoconjugates 1–4 at various concentrations (10–400 μM in 250 μL of HBSS) were added, and incubation continued for […] 120 min at RT. […] Milli-Q water (USF Elga Purelab Ultra, Veolia Water Technologies, High Wycombe, UK) was added to bring the sample volume to 10 mL, and the boron content was measured in triplicates using ICP-MS. […]

[4] = Plasma stability, human plasma; format: in vitro ADME; settings: 50 μM
Experimental: These studies provide important insights into the stability and behavior of the delivery agent in a biological setting, which is a key factor at later stages of the development pipeline. The serum stability studies were performed in both human and mouse plasma at a set concentration of 50 μM over a time period of 24 h. Propantheline (5 μM) was utilized as a control substrate for validating the assay. […] In human plasma, the stability profile was distinct. […] While the boron delivery agent 4 does decompose in human plasma over time, the rate at which this occurs is acceptable when taking into account that the recommended guidelines for FDG imaging, thus tumor delivery, is between 55–75 min post administration. Nevertheless, the ortho-carboranylmethyl-substituent is likely to affect the pharmacokinetic properties of the delivery agents and thus comprehensive biodistribution studies will be needed in the future to assess these factors in more detail.
10 mM working solutions of the test compound was prepared in DMSO and a 1 mM working solution of the control compound propantheline was prepared in acetonitrile. 4 µL of working solutions was spiked to 796 µL of pre-incubated plasma to reach a final concentration of 50 µM or 5 µM. The final concentration of solvent was 0.5%. 50 µL aliquots of the spiked plasma were added into new tubes for 1, 4, 8 and 24 h and incubated at 37 °C water bath with shaking at 60 rpm. The assay was performed in duplicate. The reaction was stopped by adding 300 µL of RT quench solution (acetonitrile containing internal standards (IS, 100 nM Alprazolam, 500 nM Labetalol, and 2 µM Ketoprofen)) to the spiked plasma samples at the appointed time points. […] Peak area ratios were determined from extracted ion chromatograms. Percent compounds remaining at each time point were calculated by the following equation:Remaining Percentage t h (%) = Peak Area Ratio t h/Peak Area Ratio 0 h × 100 where Peak Area Ratio t h is the peak area ratio of control and test compound at t h; Peak Area Ratio 0 h is the peak area ratio of control and test compound at zero time point.

- IC50 (GLUT1): 57.5 µM
Compound: 2-deoxy-2-fluoro-4-O-carboranylmethyl-D-glucopyranose [Compound 2]

- IC50 (GLUT1): 62.6 µM
Compound: 2-deoxy-2-fluoro-6-O-carboranylmethyl-D-mannopyranose [Compound 3]

- IC50 (GLUT1): 78.3 µM
Compound: 2-deoxy-2-fluoro-6-O-carboranylmethyl-D-glucopyranose [Compound 1]

- IC50 (GLUT1): > 1000 µM
Compound: OC[C@H]1OC(O)[C@H](O)[C@@H](O)[C@@H]1O (stereo partly shown) [D -Glc, reference compound]

- bound to plasma proteins [1]: ~ 97%
- unbound [1]: 3%
- remained in the bound state ([2]; 6 h mark): 80–87%
- bound to plasma proteins ([2]; equilibrium dialysis): ~ 97%
- unbound ([2]; equilibrium dialysis): 3%
- conjugate remaining intact ([3]; 1 h): 84.7%
- conjugate remaining intact ([3]; 24 h): 60%
- IC50 (GLUT1): 59.5 µM
- stability in human plasma ([4]; 1 h): remained stable
- remained intact ([4]; 4 h): 86.7%
- remained intact ([4]; 24 h): 39.5%
Compound: 2-deoxy-2-fluoro-4-O-carboranylmethyl-D-mannopyranose [Compound 4]
- boron delivery capacity (CAL 27 cells): best delivery agent out of the series synthesized
